Test results from US12692223B2, “Phenyl-sulfamoyl-benzoic acid derivatives as ERAP1-modulators” (GREY WOLF THERAPEUTICS LIMITED, priority 2021, dated 2026).

What follows are molecules tested against T1, ERAP1 (Homo sapiens, UniProt Q9NZ08) (assay: ERAP1 mediated hydrolysis of an amide substrate measured in a biochemical system (10-mer inhibition assay)). Details: purified ERAP1(37-941)-10His; 10-mer substrate; 23° C. for 1 h; excitation 279 nm, emission 355 nm; read-out: IC50 vs Decapeptide WRVYEKC(Dnp)ALK-acid (where Dnp is Dinitrophenyl maleimide) (10-mer).
T1 construct: Purified ERAP1(37-941)-10His (ERAP1)
T1 sequence (Q9NZ08 37-941): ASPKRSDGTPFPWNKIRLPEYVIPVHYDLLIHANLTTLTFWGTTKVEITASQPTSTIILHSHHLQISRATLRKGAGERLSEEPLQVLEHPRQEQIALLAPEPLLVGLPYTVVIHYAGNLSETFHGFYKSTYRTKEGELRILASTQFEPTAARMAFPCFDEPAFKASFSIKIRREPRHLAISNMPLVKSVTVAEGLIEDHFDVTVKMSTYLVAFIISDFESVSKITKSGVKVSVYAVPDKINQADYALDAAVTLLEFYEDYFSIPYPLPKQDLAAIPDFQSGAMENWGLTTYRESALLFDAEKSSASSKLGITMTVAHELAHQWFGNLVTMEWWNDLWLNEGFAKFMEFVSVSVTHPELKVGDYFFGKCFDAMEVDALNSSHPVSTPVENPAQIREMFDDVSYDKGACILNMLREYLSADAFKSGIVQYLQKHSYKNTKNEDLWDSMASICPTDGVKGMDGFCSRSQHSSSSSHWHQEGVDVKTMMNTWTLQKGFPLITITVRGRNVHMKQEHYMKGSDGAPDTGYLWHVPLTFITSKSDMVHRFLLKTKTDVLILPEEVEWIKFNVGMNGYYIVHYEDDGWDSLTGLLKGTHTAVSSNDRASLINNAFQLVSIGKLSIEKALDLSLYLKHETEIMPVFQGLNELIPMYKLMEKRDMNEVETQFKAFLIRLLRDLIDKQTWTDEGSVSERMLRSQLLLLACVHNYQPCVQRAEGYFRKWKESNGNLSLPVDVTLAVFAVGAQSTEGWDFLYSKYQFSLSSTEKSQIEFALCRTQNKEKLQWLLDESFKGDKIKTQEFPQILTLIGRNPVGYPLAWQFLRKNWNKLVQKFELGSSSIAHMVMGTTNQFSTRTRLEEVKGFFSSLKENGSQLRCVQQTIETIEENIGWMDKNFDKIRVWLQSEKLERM
Protocol: Biological Assay 1: ERAP1 Mediated Hydrolysis of an Amide Substrate Measured in a Biochemical System
• 1× Assay buffer (AB): 25 mM Bis-tris propane, 0.05% w/v • Hydroxypropylmethylcellulose pH 7.75 made with Optima grade water • Decapeptide WRVYEKC(Dnp)ALK-acid (where Dnp is Dinitrophenyl maleimide) (10-mer) • L-Leucine 7-amido-4-methylcoumarin (L-AMC) • Purified ERAP1(37-941)-10His (ERAP1) Assay Procedure:
12.5 μL ERAP1 enzyme in 1×AB was combined with 250 nL test compound in DMSO. 12.5 μL of either 240 μM L-AMC in 1×AB or 100 μM 10-mer in 1×AB was added to the reaction and incubated at 23° C. for 1 h. For detection, plates were read at excitation 365 nm and emission 442 nm (L-AMC) or excitation 279 nm and emission 355 nm (10-mer). Compound IC50 was determined using a 4-parameter equation.

IC50 [nM] | Structure (SMILES)
< 1 | CC1CC(COc2cc(Cl)c(C#N)cc2NS(=O)(=O)c2cc(C(=O)O)ccc2C2CC2)C1 (mixture of isomers) [Example 89, 3-(N-(4-chloro-5-cyano-2-((3-methylcyclobutyl)methoxy)phenyl)sulfamoyl)-4-cyclopropylbenzoic acid]
< 1 | COC1CCC(Oc2cc(Cl)c(C#N)cc2NS(=O)(=O)c2cc(C(=O)O)ccc2C2CC2)C1 (mixture of isomers) [Example 124, 3-(N-(4-chloro-5-cyano-2-((3-methoxycyclopentyl)oxy)phenyl)sulfa-moyl)-4-cyclopropylbenzoic acid]
< 1 | N#Cc1cc(NS(=O)(=O)c2cc(C(=O)O)ccc2C2CC2)c(OC2CCCC2O)cc1Cl (racemic) [Example 59, 3-(N-(4-chloro-5-cyano-2-((trans-2-hydroxycyclopentyl)oxy)phenyl)sulfamoyl)-4-cyclopropylbenzoic acid]
< 1 | N#Cc1cc(NS(=O)(=O)c2cc(C(=O)O)ccc2C2CC2)c(OC2CCC(C#N)C2)cc1Cl (racemic) [Example 72, 3-(N-(4-chloro-5-cyano-2-((trans-3-cyanocyclopentyl)oxy)phenyl)sulfamoyl)-4-cyclopropylbenzoic acid]
< 1 | N#Cc1cc(NS(=O)(=O)c2cc(C(=O)O)ccc2C2CC2)c(OC2CCC(C#N)C2)cc1Cl (racemic) [Example 74, 3-(N-(4-chloro-5-cyano-2-((cis-3-cyanocyclopentyl)oxy)phenyl)sulfamoyl)-4-cyclopropylbenzoic acid]
< 1 | C#CC1CCCC1Oc1cc(Cl)c(C#N)cc1NS(=O)(=O)c1cc(C(=O)O)ccc1C1CC1 (racemic) [Example 84, 3-(N-(4-chloro-5-cyano-2-((trans-2-ethynylcyclopentyl)oxy)phenyl)sulfamoyl)-4-cyclopropylbenzoic acid]
< 1 | COC1CCCC1Oc1cc(Cl)c(C#N)cc1NS(=O)(=O)c1cc(C(=O)O)ccc1C1CC1 (racemic) [Example 85, 3-(N-(4-chloro-5-cyano-2-((trans-2-methoxycyclopentyl)oxy)phenyl)sulfamoyl)-4-cyclopropylbenzoic acid]
< 1 | N#Cc1cc(NS(=O)(=O)c2cc(C(=O)O)ccc2C2CC2)c(OC2CCCC2F)cc1Cl (racemic) [Example 86, 3-(N-(4-chloro-5-cyano-2-((trans-2-fluorocyclopentyl)oxy)phenyl)sulfamoyl)-4-cyclopropylbenzoic acid]
< 1 | CC1CCCC1Oc1cc(Cl)c(C#N)cc1NS(=O)(=O)c1cc(C(=O)O)ccc1C1CC1 (racemic) [Example 90, 3-(N-(4-chloro-5-cyano-2-((trans-2-methylcyclopentyl)oxy)phenyl)sulfamoyl)-4-cyclopropylbenzoic acid]
< 1 | N#Cc1cc(NS(=O)(=O)c2cc(C(=O)O)ccc2C2CC2)c(OC2CCCC2O)cc1Cl (racemic) [Example 98, 3-(N-(4-chloro-5-cyano-2-((cis-2-hydroxycyclopentyl)oxy)phenyl)sulfamoyl)-4-cyclopropylbenzoic acid]
< 1 | COC1CCCC1Oc1cc(Cl)c(C#N)cc1NS(=O)(=O)c1cc(C(=O)O)ccc1C1CC1 (racemic) [Example 102, 3-(N-(4-chloro-5-cyano-2-((cis-2-methoxycyclopentyl)oxy)phenyl)sulfa-moyl)-4-cyclopropylbenzoic acid]
< 1 | CC1CCCC1Oc1cc(Cl)c(C#N)cc1NS(=O)(=O)c1cc(C(=O)O)ccc1C1CC1 (racemic) [Example 105, 3-(N-(4-chloro-5-cyano-2-((cis-2-methylcyclopentyl)oxy)-phenyl)sulfamoyl)-4-cyclopropylbenzoic acid]
< 1 | N#Cc1cc(NS(=O)(=O)c2cc(C(=O)O)ccc2C2CC2)c(OC2CCC(O)C2)cc1Cl (racemic) [Example 110, 3-(N-(4-chloro-5-cyano-2-((cis-3-hydroxycyclopentyl)oxy)phenyl)sulfa-moyl)-4-cyclopropylbenzoic acid]
1 to 5 | N#Cc1cc(NS(=O)(=O)c2cc(C(=O)O)ccc2C2CC2)c(OC2CCC(O)C2)cc1Cl (racemic) [Example 111, 3-(N-(4-chloro-5-cyano-2-((trans-3-hydroxycyclopentyl)oxy)phenyl)sulfa-moyl)-4-cyclopropylbenzoic acid]
1 to 5 | N#Cc1cc(NS(=O)(=O)c2cc(C(=O)O)ccc2C2CC2)c(OC2CCC23CCC3)cc1Cl (single isomer, unassigned) [Example 91, 3-(N-(4-chloro-5-cyano-2-(spiro[3.3]heptan-1-yloxy)phenyl)sulfamoyl)-4-cyclopropylbenzoic acid]
< 1 | N#Cc1cc(NS(=O)(=O)c2cc(C(=O)O)ccc2C2CC2)c(OC2CCC23CCC3)cc1Cl (single isomer, unassigned) [Example 92, 3-(N-(4-chloro-5-cyano-2-(spiro[3.3]heptan-1-yloxy)phenyl)sulfamoyl)-4-cyclopropylbenzoic acid]

Structure (SMILES) | IC50 [nM]
CC1CC(Oc2cc(Cl)c(C#N)cc2NS(=O)(=O)c2cc(C(=O)O)ccc2C2CC2)C1 (mixture of isomers) [Example 88, 3-(N-(4-chloro-5-cyano-2-(3-methylcyclobutoxy)phenyl)sulfamoyl)-4-cyclopropylbenzoic acid] | < 1
N#Cc1cc(NS(=O)(=O)c2cc(C(=O)O)ccc2C2CC2)c(OC2CCC2C2CC2)cc1Cl (mixture of isomers) [Example 108, 3-(N-(4-chloro-5-cyano-2-(2-cyclopropylcyclobutoxy)-phenyl)sulfamoyl)-4-cyclopropylbenzoic acid] | < 1
N#Cc1cc(NS(=O)(=O)c2cc(C(=O)O)ccc2C2CC2)c(OC2CCC2O)cc1Cl (racemic) [Example 113, 3-(N-(4-chloro-5-cyano-2-(cis-2-hydroxycyclobutoxy)phenyl)sulfamoyl)-4-cyclopropylbenzoic acid] | < 1
N#Cc1cc(NS(=O)(=O)c2cc(C(=O)O)ccc2C2CC2)c(OC2CCC2O)cc1Cl (racemic) [Example 118, 3-(N-(4-chloro-5-cyano-2-(trans-2-hydroxycyclobutoxy)phenyl)sulfamoyl)-4-cyclopropylbenzoic acid] | < 1
COC1CCC1Oc1cc(Cl)c(C#N)cc1NS(=O)(=O)c1cc(C(=O)O)ccc1C1CC1 (racemic) [Example 119, 3-(N-(4-chloro-5-cyano-2-(trans-2-methoxycyclobutoxy)phenyl)sulfamoyl)-4-cyclopropylbenzoic acid] | < 1
COC1CCC1Oc1cc(Cl)c(C#N)cc1NS(=O)(=O)c1cc(C(=O)O)ccc1C1CC1 (racemic) [Example 137, 3-(N-(4-chloro-5-cyano-2-(cis-2-methoxycyclobutoxy)phenyl)sulfamoyl)-4-cyclopropylbenzoic acid] | < 1
CC1(C)CCC1Oc1cc(Cl)c(C#N)cc1NS(=O)(=O)c1cc(C(=O)O)ccc1C1CC1 (single isomer, unassigned) [Example 93, 3-(N-(4-chloro-5-cyano-2-(2,2-dimethylcyclobutoxy)phenyl)-sulfamoyl)-4-cyclopropylbenzoic acid] | 1 to 5
CC1(C)CCC1Oc1cc(Cl)c(C#N)cc1NS(=O)(=O)c1cc(C(=O)O)ccc1C1CC1 (single isomer, unassigned) [Example 94, 3-(N-(4-chloro-5-cyano-2-(2,2-dimethylcyclobutoxy)phenyl)-sulfamoyl)-4-cyclopropylbenzoic acid] | < 1
